Legend:
MIA PaCa-2 cells = assay: Caspase-3 activity (Ac-DEVD-R110 cleavage) in MIA PaCa-2 cells; type: cell-based
Protocol: Caspase-3 activity was measured using its ability to cleave its substrate (Ac-DEVD-R110). Increased Caspase-3 activity would lead to higher release of fluorescent R110 which was measured at 485 nm excitation and 530 nm emission. Activity of caspase-3 (as nano-moles of R110 released) was normalized to total cellular protein. […] Cell death was measured by increased levels of DNA fragments as per manufacturer's protocol (Roche) and was normalized to total cellular DNA. Data are represented as % of control.

DIO mice = assay: Compound 40 with exercise on metabolic profile in DIO mice; exercise endurance (tread mill) test; type: in vivo, male C57BL/6J mice
Protocol: Exercise endurance test or tread mill test (TMT): Exercise endurance test was accomplished on a motor treadmill at a low to moderate intensity of 5-20 cm/sec as maximal running speed with an intensity of 0.2 mA shock and one degree of inclination. The animals were subjected for TMT till exhaustion and different observations like distance traveled (cm), time spent on shock zone (sec), number of shocks, total time (min) were measured for all the mice in different groups.
Six week old male C57BL/6J mice were selected, acclimatized for a period of 1 week, Animals were assigned to either chow (10% kcal from fat) or high fat diet (HFD) (D12492; 60% kcal from fat), Research Diets, Inc., New Jersey, USA. After 11 weeks of the diet intervention, the HFD fed animals were assigned to specific treatment groups based upon body weight, glucose AUC during OGTT, fasting and fed blood glucose and fasting TG. The lean control mice (n=10) were fed with normal chow diet while the treatment group (n=10) and HFD Control (n=10), with and without exercise training, with high fat diet throughout the experimental period. Treatment group received Compound 40 with and without exercise training, at a dose of 10 mg/kg b.wt, once daily, po as suspension in 1% MC (methyl cellulose) as vehicle. Lean control and HFD controls animals were administered with vehicle. Exercise training was accomplished on a motor treadmill at a low to moderate intensity of 5-20 cm/sec as maximal running speed with an intensity of 0.2 mA shock and one degree of inclination. The animals were adapted to this procedure 5 days a week and different observations like distance traveled (cm), time spent on shock zone (sec), number of shocks, total time (min) will be measured for all the mice in different groups. Weekly body weight & daily feed consumption was recorded. The blood collected from tail vein was subjected for estimation of glucose and TG. OGTT was performed in 6 h fasted mice with 2 g/kg, of oral glucose challenge after 4 and 8 weeks of treatment. Then animals were euthanized and necropsied, the liver was excised immediately, weighed and taken to estimate liver triglyceride (TG). Different adipose depots were separated and weighed.

male ZDF rats = assay: Effect of RXR agonist on male ZDF rats; type: in vivo; settings: 10 mg/kg, BID, po
Protocol: Five week old male ZDF rats from Charles River & age matched control rats were housed under temperature 22±3° C., relative humidity 50-70%, 12 hour light and 12 hour dark cycle with artificial fluorescent tubes. The animals were housed in a group of 3 in standard polypropylene cages with stainless steel top grill having facilities for pelleted food and drinking water in bottle. The animals were fed with normal chow diet (Provomi), Bisleri, commercially available mineral drinking water was provided ad libitum. The lean control and the male […] rats were randomized to either vehicle or drug (Compound 40, 10 mg/kg, BID, po) treatment groups by body weight, fed glucose and glucose. The treatment was continued for 8 weeks. Body weight, fasting and fed glucose and fast triglycerides (tail snip) were monitored weekly. At the end of week 8 of the treatment, glucose and insulin HbAlc levels were followed at different time intervals. Blood samples collected from tail nipping method HbAlc levels by DCA vantage (SIEMENS).
Measurement of Nerve conduction velocity: Nerve conduction velocity was measured using Electronic stimulator connected to AD Power Lab 8/30, AD instruments. Briefly animals were anaesthetized and three different electrodes (+ve, −ve and neutral) were connected from Bio amp to animal. +ve electrode was placed on front side of fourth finger on hind paw, −ve electrode was placed just above +ve electrode at a distance of 10 mm and neutral electrode was placed on abdomen region. Voltage at a rate of 5 mv with pulse width of 0.001 sec was provided on two different regions at a distance of 1 cm on sciatic nerve. Nerve conduction was recorded using Lab chart software in scope view panel. Latencies at two different points were measured by taking the mouse cursor at the beginning of peaks. […] Measurement of Hemodynamic Parameters by Using Millar MPVS System:
At the end of 22 weeks of treatment period animal were subjected to hemodynamic measurement using Millar MPVS system, briefly animal was anesthetized using urethane and all surgical procedure was done on thermal plate, both jugular vein and carotid artery was cannulated in which jugular vein was used for saline calibration whereas rat millar Cather was introduced into left ventricle through carotid artery was be used for recording the Pressure volume loop. Blood was withdrawn from the tail vein puncture by pricking with needle into pre-filled EDTA tubes, mix and placed on ice immediately, centrifuge at 10000 rpm for 10 minutes using cold centrifuge. The plasma separated was subjected for estimation of ANP, BNP, Osteprotegerin Using USCN kit and Serum urea and BUN using Robonik kit.

## CC1(C)CCC(C)(C)c2sc(N(CC3CC3)c3ccc(C(=O)O)cn3)nc21 [Compound 40, 6-[(Cyclopropylmethyl) (4,4,7,7-tetramethyl-4,5,6,7-tetrahydro-1,3-benzothiazol-2-yl)amino]pyridine-3-carboxylic acid]
MIA PaCa-2 cells
  Caspase-3 activity: significantly increased
DIO mice; 10 mg/kg b.wt, once daily, po
  Body weight: improvement was also observed
  OGTT levels: significant improvement
  fasting TG levels: improvement was also observed
  fasting glucose: significant improvement
DIO mice; DIO mice, tread mill test
  muscle endurance: significantly improves muscle endurance
Male ZDF rats
  CRP levels: decreasing CRP levels
  HbAlc levels: very significant improvement
  activity of SDH (glucose oxidation in muscle): significantly increased the activity of SDH
  fasting TG levels: significantly reduces fasting TG levels
  fasting glucose: significant control of Fasting glucose
  glucose disposal: improves glucose disposal
  hyperinsulinemia (insulin levels): significantly reduced hyperinsulinemia
  levels of biomarkers of Cardio vascular risk: improvement in levels of biomarkers of Cardio vascular risk
  prandial hyperglycemia (fed glucose): both an early onset and sustained control of prandial hyperglycemia
Male ZDF rats; Millar MPVS hemodynamic measurement
  Cardiac function: Substantial improvement
Male ZDF rats; end of 22 weeks
  BUN levels: Substantial decrease
  Serum Creatinine levels: Substantial decrease
Male ZDF rats; fasting TG during treatment and there after
  hypertriglyceridemia: does not cause hypertriglyceridemia
Male ZDF rats; sciatic nerve
  Nerve conduction velocity (NCV): Significant improvement

From patent US9862713B2, “Substituted bicyclic heteroaryl compounds as RXR agonists” (CONNEXIOS LIFE SCIENCES PVT. LTD., priority 2014, dated 2018)
